# From patent US12728116B2, “Methods of treating multiple sclerosis” (Vanda Pharmaceuticals Inc., priority 2021, dated 2026)
# Columns and labels:
# [1] = system: adult subjects with relapsing MS; test: Confirmed relapses up to EOS - annualized relapse rate (ARR), phase III study; assay type: in vivo, human; conditions: for Total number of relapses (confirmed, up to EOS): total time 1119 / 1137 years; for Mean estimate (ARR), confirmed relapses up to EOS, negative binomial regression: ponesimod 20 mg, teriflunomide 14 mg
# Experimental: Primary efficacy variable/primary timepoint: The primary endpoint was annualized relapse rate (ARR) up to the end of study (EOS) defined as the number of confirmed relapses per subject-year. All available data up to EOS, regardless of treatment discontinuation was included (ITT approach).
# A generalized linear model with negative binomial distribution was fitted for the primary efficacy endpoint ARR. Two-sided hypotheses were expressed in terms of the model parameters μP20 mg and μT14 mg.
# The primary statistical analysis of the ARR endpoint was performed on the FAS using a negative binomial model for confirmed relapses, with the stratification variables prior use of disease-modifying therapies (DMTs) and EDSS category as well as the number of relapses in the year prior to study entry, included in the model and time in the study as an offset variable. Sensitivity analyses was performed on the PPS and also based on different subgroups derived from baseline variables.
# A relapse is defined as new, worsening or recurrent neurological symptoms that occur at least 30 days after the onset of a preceding relapse, and that last at least 24 hours, in the absence of fever or infection.
# A relapse was confirmed by the treating neurologist only when the subjects' symptoms were accompanied by an increase in EDSS/FS (functional system) scores, which were consistent with the subject's symptoms, from a previous clinically stable EDSS/FS assessment (i.e., performed at least 30 days after the onset of any previous relapse), obtained by the efficacy assessor and consistent with the following: • An increase of at least half a step (0.5 points; unless EDSS=0, then an increase of at least 1.0 points is required) or • An increase of at least 1.0 point in at least two FS scores, or • An increase of at least 2.0 points in at least one FS score (excluding bladder/bowel and cerebral).
# The primary statistical analysis was performed up to EOS on the FAS using a negative binomial regression model for confirmed relapses, with treatment as a factor and the binary stratification variables (EDSS≤3.5 versus EDSS>3.5; DMTs within last 2 years prior to randomization [Yes/No]) and the number of relapses in the year prior to study entry (categories≤1 (or missing) and […]) included in the model. The model also included an offset variable defined as the log of time on study (in years) from randomization up to EOS.
# This subgroup analysis examined patients with EDSS≤3 (up to moderate disability in one function, or mild disability in three or four functions; no impairment to walking), and/or who were treatment naïve.
# ARR differences and mean number of CUALs were examined using a negative binomial regression model with adjusting for the log time in the study (in years) as an offset.
# [2] = system: adult subjects with relapsing MS; test: FSIQ-RMS weekly symptoms score, change from baseline to Week 108 (fatigue); assay type: in vivo, human; conditions: for FSIQ-RMS change: Improved (<−6.3), patients / FSIQ-RMS change: Stable (−6.3 < x < +6.3), patients / FSIQ-RMS change: Stable or Improved, patients / FSIQ-RMS change: Worsened (≥6.3), patients / FSIQ-RMS-S total score change: Improved (<−6.3), patients / FSIQ-RMS-S total score change: Stable (−6.3 < x < +6.3), patients / FSIQ-RMS-S total score change: Stable or Improved, patients / FSIQ-RMS-S total score change: Worsened (≥6.3), patients: Week 108; for Mean change from baseline to Week 108 in FSIQ-RMS weekly symptoms score (MMRM): ponesimod 20 mg, teriflunomide 14 mg, full analysis set, increase = worsening
# Experimental: In some embodiments, the patient-reported outcome questionnaire is the symptom domain of the FSIQ-RMS. The FSIQ-RMS symptom domain (FSIQ-RMS-S) consists of seven items assessing fatigue-related symptoms with a recall period of 24 hours measured on an 11-point numeric rating scale; the standardized symptom domain score ranges from 0 to 100 with a higher score indicating greater fatigue. This domain (i.e., section 1 of the questionnaire) is completed on 7 consecutive days.
# As used herein, the term “patient level” refers to individual or within patient level of change. As used herein, “clinically meaningful” refers to the practical importance of a treatment effect and whether it has a real genuine, palpable, noticeable effect on symptoms and/or daily life. When interpreting data from a Patient Reported Outcome (PRO), for example, it is helpful to define a level of change on the PRO score over a predetermined time period that should be interpreted as a treatment benefit. Various terms are used for this level of change, including meaningful change threshold (MCT). This threshold can be used to conduct a responder analysis where an individual patient is a responder if the level of change on the PRO score for that patient exceeds the MCT. The proportion of responders between treatment groups can be compared to evaluate treatment effect. For example, in certain embodiments disclosed herein, there is an analysis of the percentage of responders in the ponesimod and teriflunomide treatment groups using an MCT of −6.3 on the FSIQ-RMS weekly symptom score. The percentage of subjects in the stable or improved category is also calculated. […] Accordingly, evaluation of within patient changes using MCT and associated responder analyses are used to provide additional interpretation to a p-value derived from a statistical test
# For the MS symptoms domain, the FSIQ-RMS asks about a patient's fatigue-related symptoms of relapsing MS over the past 24 hours while doing routine daily activities (e.g., housework, yard work, shopping, working, etc.) for Items 1-6 or while at rest (e.g., reading a book, watching TV, etc.) for Item 7. Patients are asked to select a response on a scale of 0 to 10 that best describes their experience and are asked to not skip any questions, with no answers being right or wrong. • Item 1—In the past 24 hours, while doing routine daily activities, how physically tired did you feel? See FIG. 31. • Item 2—In the past 24 hours, while doing routine daily activities, how mentally tired did you feel? See FIG. 32. • Item 3—In the past 24 hours, while doing routine daily activities, how physical weak did you feel? See FIG. 33. • Item 4—In the past 24 hours, how would you rate your energy while doing routine daily activities? See FIG. 34. • Item 5—In the past 24 hours, while doing routine daily activities, how worn out did you feel? See FIG. 35. • Item 6—In the past 24 hours, while doing routine daily activities, how sleepy did you feel? See FIG. 36. • Item 7—In the past 24 hours, how worn out did you feel while at rest? MS-Related Impacts—13 Items
# Secondary efficacy variables and testing strategy: Four secondary efficacy endpoints were analyzed as per the statistical testing strategy outlined in FIG. 1. • Change from baseline to Week 108 in fatigue-related symptoms as measured by the symptoms domain of the FSIQ-RMS patient-reported outcome [Fatigue] • Cumulative number of combined unique active lesions from baseline to Week 108 on brain MRI [CUALs] • Time to first 12-week confirmed disability accumulation (CDA) from baseline to EOS on Expanded Disability Status Scale (EDSS) [12-week CDA] • Time to first 24-week CDA from baseline to EOS on EDSS [24-week CDA] […]
# [3] = ponesimod 20 mg vs teriflunomide 14 mg, Full Analysis Set
# [4] = Baseline EDSS <3.5 (title: ≤3.5)
# [5] = baseline fatigue below the median
# [6] = no prior DMT treatment within about two years
# [7] = no prior DMT treatment within about two years, listed as ponesimod
SMILES,Raw ARR ([1]; Full Analysis Set),"Total number of relapses (confirmed, up to EOS) ([1]; Full Analysis Set)","Mean estimate (ARR), confirmed relapses up to EOS, negative binomial regression ([1]; Full Analysis Set)","FSIQ-RMS change: Improved (<−6.3), patients [2, 4] [%]","FSIQ-RMS change: Stable (−6.3 < x < +6.3), patients [2, 4] [%]","FSIQ-RMS change: Stable or Improved, patients [2, 4] [%]","FSIQ-RMS change: Worsened (≥6.3), patients [2, 4] [%]","FSIQ-RMS-S total score change: Improved (<−6.3), patients ([2]; Full Analysis Set) [%]","FSIQ-RMS-S total score change: Stable (−6.3 < x < +6.3), patients ([2]; Full Analysis Set) [%]","FSIQ-RMS-S total score change: Stable or Improved, patients ([2]; Full Analysis Set) [%]","FSIQ-RMS-S total score change: Worsened (≥6.3), patients ([2]; Full Analysis Set) [%]","FSIQ-RMS change: Improved (<−6.3), patients [2, 5] [%]","FSIQ-RMS change: Stable (−6.3 < x < +6.3), patients [2, 5] [%]","FSIQ-RMS change: Stable or Improved, patients [2, 5] [%]","FSIQ-RMS change: Worsened (≥6.3), patients [2, 5] [%]","FSIQ-RMS change: Improved (<−6.3), patients ([2]; no Gd+ T1 lesions at baseline) [%]","FSIQ-RMS change: Stable (−6.3 < x < +6.3), patients ([2]; no Gd+ T1 lesions at baseline) [%]","FSIQ-RMS change: Stable or Improved, patients ([2]; no Gd+ T1 lesions at baseline) [%]","FSIQ-RMS change: Worsened (≥6.3), patients ([2]; no Gd+ T1 lesions at baseline) [%]","FSIQ-RMS change: Improved (<−6.3), patients [2, 6] [%]",also measured
"CCC/N=C1\S/C(=C\c2ccc(OC[C@H](O)CO)c(Cl)c2)C(=O)N1c1ccccc1C [Ponesimod, (R)-5-[3-chloro-4-(2,3-dihydroxy-propoxy)-benz[Z]ylidene]-2-([Z]-propylimino)-3-o-tolyl-thiazolidin-4-one]",0.216,242,0.202,30.6,40.8,71.4,28.6,30.5,38.4,68.9,31.1,19.1,45.2,64.4,35.6,30.0,37.4,67.5,32.5,31.4,"ARR rate ratio (RR), ponesimod vs teriflunomide ([1]; EDSS≤3 subgroup): 0.530; Reduction of ARR vs teriflunomide ([1]; EDSS≤3 subgroup): 47%; Reduction of ARR (confirmed relapses) up to EOS compared to teriflunomide ([1]; ponesimod 20 mg vs teriflunomide 14 mg): 30.5%; Treatment effect (rate ratio) on ARR, ponesimod vs teriflunomide [1, 3]: 0.695; MS-fatigue (FSIQ-RMS) mean difference, change from baseline to week 108, ponesimod vs teriflunomide ([2]; EDSS≤3 subgroup): −4.31; FSIQ-RMS change: Stable or Improved, patients ([2]; baseline fatigue below the median, listed as ponesimod): ~65%; FSIQ-RMS change: Stable or Improved, patients ([2]; no Gd+ T1 lesions at baseline, listed as ponesimod): about 68%; FSIQ-RMS change: Stable (−6.3 < x < +6.3), patients [2, 6]: 44.0%; FSIQ-RMS change: Stable or Improved, patients [2, 6]: 75.4%; FSIQ-RMS change: Worsened (≥6.3), patients [2, 6]: 24.6%; FSIQ-RMS change: Improved (<−6.3), patients [2, 7]: 31.4%; FSIQ-RMS change: Stable or Improved, patients [2, 7]: about 75%; Mean difference in FSIQ-RMS change from baseline to Week 108, ponesimod vs teriflunomide [2, 3]: −3.57; Mean change from baseline to Week 108 in FSIQ-RMS weekly symptoms score (MMRM) [2]: −0.01"
"C/C(O)=C(\C#N)C(=O)Nc1ccc(C(F)(F)F)cc1 [Teriflunomide, reference compound]",0.303,344,0.290,27.9,34.2,62.1,37.9,29.9,32.6,62.5,37.5,20.9,33.7,54.6,45.4,25.8,31.2,57.0,43.0,26.2,"FSIQ-RMS change: Stable or Improved, patients ([2]; baseline fatigue below the median, listed as teriflunomide): about 55%; FSIQ-RMS change: Stable or Improved, patients ([2]; no Gd+ T1 lesions at baseline, listed as teriflunomide): about 57%; FSIQ-RMS change: Stable (−6.3 < x < +6.3), patients [2, 6]: 36.9%; FSIQ-RMS change: Stable or Improved, patients [2, 6]: 63.1%; FSIQ-RMS change: Worsened (≥6.3), patients [2, 6]: 36.9%; Mean change from baseline to Week 108 in FSIQ-RMS weekly symptoms score (MMRM) [2]: 3.56"
